Experimental findings from PubChem BioAssay (NCI) are described below.

What all share (assay): NCI tumour cell line growth inhibition, 48 h
The subject of assay [1] is OVCAR-4 ovarian.
Assay [2] concerns SR leukemia.
Assay [3] concerns HS 578T breast.
For assay [4], the system named is MALME-3M melanoma.
In assay [5] the test system is CCRF-CEM leukemia.
Assay [6] concerns IGROV1 ovarian.
Assay [7] has as its system SF-539 CNS.
The test system of assay [8] is SN12C renal.
In assay [9] the test system is UACC-257 melanoma.
Assay [10] relates to UO-31 renal.

“And” between values parts separate entries of the source, which are not always exact repeats. Identical values can stand only once.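 Briefly, cells in 96-well plates were exposed to five compound concentrations for 48 h, and endpoints were estimated by linear interpolation. GI50: concentration for 50% inhibition of growth. The concentration for full growth arrest is given as TGI.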

As for `Clc1ccc2c(NCCNc3nc(N4CCCC4)nc4ccccc34)ccnc2c1`, the GI50 was 1.28 µM in [1]; 0.365 µM in [2]; 2.34 µM in assay [3]; 1.91 µM in [4]; 0.457 µM in assay [5]; 1.65 µM in assay [6]. Moreover, the GI50 in [7] is 1.76 µM; in assay [8], 1.16 µM; in [9], 1.96 µM; in assay [10], 1.26 µM. Also, the TGI in [1] was 3.58 µM; in [2] it was 2.36 µM; in assay [3], 7 µM; in assay [4], 3.6 µM; in assay [5], over 100 µM; in assay [6], 4.6 µM. Further, the TGI worked out at 3.25 µM in assay [7], 3.3 µM in assay [8], 3.76 µM in [9] and 2.51 µM in assay [10].
Turning to `CCCCCC/C=C1\CCC(CN(C)C)C1=O` (centres undefined), the TGI in [1] was 45.3 µM; in assay [2], 11.7 µM; in assay [3], 40.3 µM; in assay [4], 20.7 µM; in assay [5] it was 7.21 µM; in [6] it was 26.5 µM. The TGI in assay [7] came out at 28.1 µM; in [8], 8.74 µM; in [9] it was 17.7 µM; in [10] it was 28.9 µM.
Regarding `CCN1CCN(c2ccc(Nc3ncc4ccc5ncn(C(C)C)c5c4n3)nc2)CC1`, the GI50 was 0.273 µM in [1]; 0.0402 µM in [2]; 0.155 µM in assay [3]; 0.134 µM in assay [4]; 0.145 µM in assay [5]; 0.0347 µM in assay [6]. The GI50 is 0.171 µM in [7], 0.139 µM in [8], 0.283 µM in assay [9] and 0.0291 µM in assay [10]. Moreover, the TGI stood at 0.885 µM in assay [1]; 0.618 µM in assay [3]; 1.69 µM in assay [4]; 3.63 µM in [5]; 1.6 µM in assay [6]; 0.394 µM in assay [7]. In addition, the TGI in assay [8] came out at 17.9 µM; in assay [9], 27.1 µM; in assay [10] it was 0.378 µM.
Consider `Nc1ccc(-c2ccc(-c3nc4cc(Cl)c(Cl)cc4[nH]3)cc2)cc1`, for which the GI50 in assay [1] is 3.01 µM; in assay [2], 0.181 µM; in assay [3] it was 12 µM; in assay [4], 8.02 µM; in assay [5], 0.508 µM; in [6], 12.1 µM. Further, the GI50 in assay [7] was 1.38 µM; in [8], 17.9 µM; in [9], 1.38 µM; in [10], 0.674 µM. Besides, the TGI is over 100 µM in [1]; 45.2 µM in assay [2]; 82.1 µM in assay [3]; over 63.4 µM in assay [4]; over 52.7 µM in assay [5]; over 100 µM in assay [6]. In addition, the TGI in assay [7] was over 51.5 µM; in assay [8], over 66.7 µM; in [9], over 60.7 µM; in assay [10], 13.3 µM.
In the case of `CNC(=O)CN1CCC(Oc2cc3c(Nc4cccc(Cl)c4F)ncnc3cc2OC)CC1`, the GI50 is 20.1 µM and > 7.05 µM in [1]; 21.1 µM and 2.19 µM in assay [2]; 3.35 µM and 2.96 µM in assay [3]; 16.1 µM and > 10 µM in assay [4]; 24.6 µM and > 5.76 µM in assay [5]; 0.303 µM and 0.084 µM in [6]. Besides, the GI50 in assay [7] was 13.5 µM and > 5.94 µM; in assay [8] it was 2.96 µM and 3.42 µM; in [9], 13.7 µM and > 10 µM; in assay [10], 0.177 µM and 0.427 µM. In addition, the TGI was 98.5 µM and > 10 µM in assay [1]; > 70.1 µM and 8.97 µM in [2]; 21.2 µM and > 10 µM in assay [3]; over 58 µM in assay [4]; 81 µM and > 10 µM in [5]; 5.37 µM and 4.3 µM in [6]. Moreover, the TGI was 33.4 µM and > 10 µM in assay [7]; over 100 µM in [8]; 29.2 µM and > 10 µM in assay [9]; 15.2 µM and > 10 µM in assay [10].
As for `COc1ccc2c(c1)C(=O)c1c-2c(NCCN(C)C)nc2ccccc12`, the GI50 in assay [1] was 12.2 µM; in assay [2], 0.35 µM; in assay [3], 9.28 µM; in [4], 12.4 µM; in assay [5], 0.561 µM; in assay [6], 1.86 µM. The GI50 in assay [7] is 12.4 µM; in assay [8], 3.74 µM; in assay [9] it was 4.6 µM; in [10], 9.98 µM. Further, the TGI in [1] amounted to 36.3 µM; in assay [2], 2.66 µM; in assay [3], 26.8 µM; in [4], 32.7 µM; in [5] it was 11.5 µM; in assay [6], 7.14 µM. For the same compound, the TGI worked out at 25.2 µM in assay [7], 16 µM in [8], 17.5 µM in [9] and 22 µM in assay [10].
For the compound `O=S(=O)(CCCCl)SCCCCl`, the TGI in [1] was 24.2 µM; in assay [2], 60.1 µM; in assay [3] it was 94.7 µM; in assay [4], over 83.8 µM; in assay [5], 47.1 µM; in assay [6] it was over 67.5 µM. The TGI in [7] is 53.4 µM; in assay [8], 64.1 µM; in [9], over 100 µM; in assay [10], over 100 µM.
As to `Nc1nc(-c2cccs2)cs1`, the TGI in assay [1], in assay [2], in assay [3], in assay [4], in assay [5] and in assay [6] was over 100 µM each time. Besides, the TGI in assay [7], in assay [8], in assay [9] and in assay [10] was over 100 µM each time.
As to `C=CCSSc1ncnc2c1ncn2C1OC(CO)C(O)C1O` (centres undefined), the GI50 was 0.782 µM in assay [1]; 0.205 µM in [2]; 14.5 µM in assay [3]; 2.48 µM in assay [4]; 0.46 µM in assay [5]; 0.0257 µM in assay [6]. The GI50 in assay [7] was 2.28 µM; in [8] it was 11.3 µM; in assay [9] it was 6.79 µM; in assay [10], 3.63 µM. The TGI was over 100 µM in assay [1]; 3.73 µM in assay [2]; over 93.5 µM in assay [3]; over 47.4 µM in assay [4]; 4.5 µM in assay [5]; 0.644 µM in [6]. The TGI was 21 µM in assay [7], over 100 µM in assay [8], over 86.1 µM in [9] and 16.8 µM in assay [10].
